For twelve molecules, IC50 results are on record in patent US8703768B2, “Nitrogen containing heteroaryl compounds” (Hoffmann-La Roche Inc., priority 2010, dated 2014).

This test addresses human PDE10A (Homo sapiens (Human), UniProt Q9Y233). Put plainly: human PDE10A full length Scintillation Proximity Assay (SPA). It is filed as biochemical. The conditions noted are these: 50 nM cGMP and 50 nM [3H]-cGMP, 20 minutes at room temperature; read-out: PDE10A inhibition IC50. The method in brief: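 Radiometric SPA read-out: after 20 min at room temperature with [^3H]-cGMP/cGMP substrate, zinc sulphate (18 mM) bead stop reagent added and counts read after 1 h. Non-specific signal defined without enzyme; full-length protein used.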

Chain of human PDE10A (Q9Y233 other isoform, or with tags, fused parts or gaps): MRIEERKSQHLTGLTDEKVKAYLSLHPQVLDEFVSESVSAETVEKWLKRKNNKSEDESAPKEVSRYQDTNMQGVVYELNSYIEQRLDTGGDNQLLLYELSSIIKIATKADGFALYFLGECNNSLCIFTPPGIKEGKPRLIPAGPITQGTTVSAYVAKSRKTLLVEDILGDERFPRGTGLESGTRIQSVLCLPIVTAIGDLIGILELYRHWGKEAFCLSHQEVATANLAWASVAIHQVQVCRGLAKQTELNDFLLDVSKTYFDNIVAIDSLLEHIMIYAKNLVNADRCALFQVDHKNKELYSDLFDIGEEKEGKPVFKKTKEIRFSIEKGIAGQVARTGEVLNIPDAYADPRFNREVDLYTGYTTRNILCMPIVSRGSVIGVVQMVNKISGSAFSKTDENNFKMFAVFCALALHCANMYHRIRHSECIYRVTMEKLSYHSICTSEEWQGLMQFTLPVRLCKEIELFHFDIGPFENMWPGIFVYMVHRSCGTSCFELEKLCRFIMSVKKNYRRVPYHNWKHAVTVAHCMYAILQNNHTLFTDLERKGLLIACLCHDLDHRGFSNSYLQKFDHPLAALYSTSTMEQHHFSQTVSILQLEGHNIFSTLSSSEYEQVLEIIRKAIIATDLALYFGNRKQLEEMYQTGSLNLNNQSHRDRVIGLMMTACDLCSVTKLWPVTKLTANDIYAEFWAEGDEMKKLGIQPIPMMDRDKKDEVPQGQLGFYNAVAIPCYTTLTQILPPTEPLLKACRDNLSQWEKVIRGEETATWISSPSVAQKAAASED

For the molecule `CNC(=O)c1c(NC(=O)c2nc([C@H]3CCOC3)cnc2Nc2cncnc2)cnn1C` [Example 266, 3-(Pyrimidin-5-ylamino)-6-(R)-tetrahydro-furan-3-yl-pyrazine-2-carboxylic acid (1-methyl-5-methylcarbamoyl-1H-pyrazol-4-yl)-amide], the IC50 (commonly the point on the concentration scale where inhibition reaches its midpoint) stood at 12 nM.

In the case of `CNC(=O)c1c(NC(=O)c2nc([C@@H]3CCOC3)cnc2Nc2cncnc2)cnn1C` [Example 267, 3-(Pyrimidin-5-ylamino)-6-(S)-tetrahydro-furan-3-yl-pyrazine-2-carboxylic acid (1-methyl-5-methylcarbamoyl-1H-pyrazol-4-yl)-amide], the IC50 is 7 nM.

As for `Cc1ccc(NC(=O)c2nc(C3CC3)cnc2Nc2cncnc2)c(C(=O)N(C)C)n1` [Example 268, 6-Cyclopropyl-3-(pyrimidin-5-ylamino)-pyrazine-2-carboxylic acid (2-dimethylcarbamoyl-6-methyl-pyridin-3-yl)-amide], the IC50 worked out at 14.9 nM. As for `CN(CCO)C(=O)c1ncccc1NC(=O)c1nc(C2CC2)cnc1Nc1cncnc1` [Example 269, 6-Cyclopropyl-3-(pyrimidin-5-ylamino)-pyrazine-2-carboxylic acid {2-[(2-hydroxy-ethyl)-methyl-carbamoyl]-pyridin-3-yl}-amide], the IC50 amounted to 12.7 nM. Consider `CCN(CCO)C(=O)c1ncccc1NC(=O)c1nc(C2CC2)cnc1Nc1cncnc1` [Example 270, 6-Cyclopropyl-3-(pyrimidin-5-ylamino)-pyrazine-2-carboxylic acid {2-[ethyl-(2-hydroxy-ethyl)-carbamoyl]-pyridin-3-yl}-amide], for which the IC50 was 53.3 nM.

Consider `O=C(NCCO)c1ncccc1NC(=O)c1nc(C2CC2)cnc1Nc1cncnc1` [Example 271, 6-Cyclopropyl-3-(pyrimidin-5-ylamino)-pyrazine-2-carboxylic acid [2-(2-hydroxy-ethylcarbamoyl)-pyridin-3-yl]-amide], for which the IC50 came to 0.4 nM. To `O=C(Nc1ccc(C2CC2)nc1C(=O)N1CCC1)c1nc(C2CC2)cnc1Nc1cncnc1` [Example 272, 6-Cyclopropyl-3-(pyrimidin-5-ylamino)-pyrazine-2-carboxylic acid [2-(azetidine-1-carbonyl)-6-cyclopropyl-pyridin-3-yl]-amide] belongs 8.5 nM.

Regarding `CC(C)(CO)NC(=O)c1ncccc1NC(=O)c1nc(C2CC2)cnc1Nc1cncnc1` [Example 273, 6-Cyclopropyl-3-(pyrimidin-5-ylamino)-pyrazine-2-carboxylic acid [2-(2-hydroxy-1,1-dimethyl-ethylcarbamoyl)-pyridin-3-yl]-amide], the IC50 is 0.3 nM. `CC1(NC(=O)c2ncccc2NC(=O)c2nc(C3CC3)cnc2Nc2cncnc2)COC1` [Example 275, 6-Cyclopropyl-3-(pyrimidin-5-ylamino)-pyrazine-2-carboxylic acid [2-(3-methyl-oxetan-3-ylcarbamoyl)-pyridin-3-yl]-amide]: the IC50 was 0.4 nM.

For the molecule `O=C(NC1COC1)c1ncccc1NC(=O)c1nc(C2CC2)cnc1Nc1cncnc1` [Example 277, 6-Cyclopropyl-3-(pyrimidin-5-ylamino)-pyrazine-2-carboxylic acid [2-(oxetan-3-ylcarbamoyl)-pyridin-3-yl]-amide], the IC50 is 2.7 nM. As for `Cc1ccc(NC(=O)c2nc(C3CC3)cnc2Nc2cncnc2)c(C(=O)N2CCC2)n1` [Example 278, 6-Cyclopropyl-3-(pyrimidin-5-ylamino)-pyrazine-2-carboxylic acid [2-(azetidine-1-carbonyl)-6-methyl-pyridin-3-yl]-amide], the IC50 was found to be 1.9 nM.

In the case of `Cc1ncc(NC(=O)c2nc(C3CC3)cnc2Nc2cncnc2)c(C(=O)NCC(C)(C)O)n1` [Example 281, 5-{[6-Cyclopropyl-3-(pyrimidin-5-ylamino)-pyrazine-2-carbonyl]-amino}-2-methyl-pyrimidine-4-carboxylic acid (2-hydroxy-2-methyl-propyl)-amide], the IC50 came out at 0.6 nM.
